The values that follow come from patent publication US7105512B2, “Ophthalmic aqueous pharmaceutical preparation” (Wakamoto Pharmaceutical Co., Ltd., priority 1999, dated 2006).

The structures appear in SMILES notation. “And” between values parts separate entries of the source, which are not always exact repeats. Identical values can stand only once. Counter-ions that a name gives are not always drawn.

A short description of data set [1]: Comparison of solubility in water of meloxicam salts by UV analysis.
Data set [2] can be described thus: Solubility of meloxicam in water near the neutral pH region. It is filed as physicochemical. The following applies: at 25° C.
Where [3] appears, read: pH of the aqueous solution at the concentration of the same line, below saturation.
Setting [4] is: pH of the saturated aqueous solution (SAS).

`CNC[C@H](O)[C@@H](O)[C@H](O)[C@H](O)CO.Cc1cnc(NC(=O)C2=C(O)c3ccccc3S(=O)(=O)N2C)s1` [Meglumine Salt, meglumine salt of meloxicam]: the pH is 8.57 and 8.64 and 8.73 in data set [1] (setting [3]); 9.02 in data set [1] (setting [4]).

On to `Cc1cnc(NC(=O)C2=C([O-])c3ccccc3S(=O)(=O)N2C)s1.[Na+]` [Sodium Salt, Sodium salt of meloxicam], for which the pH in data set [1] (setting [4]) worked out at 8.06.

As for `Cc1cnc(NC(=O)C2=C(O)c3ccccc3S(=O)(=O)N2C)s1` [Trometamol Salt, trometamol salt of meloxicam], the pH in data set [1] (setting [3]) was 7.52 and 7.71; in data set [1] (setting [4]), 7.93.

Take `Cc1cnc(NC(=O)C2=C(O)c3ccccc3S(=O)(=O)N2C)s1` [meloxicam]: in data set [2], the “solubility of meloxicam in water, saturated concentration” value was “about 0.2 mg/100 mL”.
